Assay results published in the supplement of paper PMC4862054.

Tests used:
Test in all cases: normalised viability (% of control), CellTiter-Blue; higher = more viable cells (about 100 = DMSO control)
Conditions in all cases: incubation time: 72 h
MDA-MB-468 = tested on: MDA-MB-468
Method in brief: (§1)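 Each value is normalised viability at a single listed concentration of the series. Breast cancer cell lines in 384-well plates were incubated 72 h with compound and read by CellTiter-Blue fluorescence at 560/590 nm, with vehicle set to 100 and a positive kill control to 0 on every plate.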

BT-549 = tested on: BT-549
Method in brief: as §1

HDQ-P1 = tested on: HDQ-P1
Method in brief: as §1

HCC1937 = tested on: HCC1937
Method in brief: as §1

CAL-148 = tested on: CAL-148
Method in brief: as §1

HCC1143 = tested on: HCC1143
Method in brief: as §1

SK-BR-3 = tested on: SK-BR-3
Method in brief: as §1

HCC1599 = tested on: HCC1599
Method in brief: as §1

Hs578T = tested on: Hs578T
Method in brief: as §1

CAL-120 = tested on: CAL-120
Method in brief: as §1

Row | SMILES | normalised viability (MDA-MB-468; 10 nM) [%] | normalised viability (MDA-MB-468; 1000 nM) [%] | normalised viability (MDA-MB-468; 10000 nM) [%] | normalised viability (BT-549; 10 nM) [%] | normalised viability (BT-549; 1000 nM) [%] | normalised viability (BT-549; 10000 nM) [%] | normalised viability (HDQ-P1; 3 nM) [%] | normalised viability (HDQ-P1; 30 nM) [%] | normalised viability (HDQ-P1; 100 nM) [%] | normalised viability (HCC1937; 10 nM) [%] | normalised viability (HCC1937; 1000 nM) [%] | normalised viability (HCC1937; 10000 nM) [%] | normalised viability (CAL-148; 3 nM) [%] | normalised viability (CAL-148; 30 nM) [%] | normalised viability (CAL-148; 100 nM) [%] | normalised viability (HCC1143; 1000 nM) [%] | normalised viability (SK-BR-3; 1000 nM) [%] | normalised viability (HCC1599; 1000 nM) [%] | normalised viability (Hs578T; 1000 nM) [%] | normalised viability (CAL-120; 1000 nM) [%] | other results
1 | CN1CCC(COc2cnc(-c3cccc(Cn4nc(-c5cccc(C#N)c5)ccc4=O)c3)nc2)CC1 | 92.8 | 92.9 | 5.99 | 98.9 | 90 | 5.83 | 82 | 91.8 | 70.5 | 79.1 | 96.1 | 10.6 | 85.8 | 83.2 | 94.2 | 103 | 89.2 | 120 | 91 | 116 | normalised viability (HCC1143; 10 nM): 116%; normalised viability (HCC1143; 10000 nM): 114%; normalised viability (SK-BR-3; 10 nM): 93.1%; normalised viability (SK-BR-3; 10000 nM): 2.76%; normalised viability (HCC1599; 10 nM): 108%; normalised viability (HCC1599; 10000 nM): 71.9%; normalised viability (Hs578T; 10 nM): 105%; normalised viability (Hs578T; 10000 nM): 59.8%; normalised viability (CAL-120; 10 nM): 97.3%; normalised viability (CAL-120; 10000 nM): 11.8%
2 | CN(C)C/C=C/C(=O)Nc1cc2c(Nc3ccc(F)c(Cl)c3)ncnc2cc1O[C@H]1CCOC1 [Afatinib] | 99.1 | 56.9 | 11.5 | 87.1 | 92.9 | 11.7 | 92.5 | 76.9 | 77.1 | 83.2 | 67.5 | 13.9 | 83.2 | 72.9 | 72.5 | 70 | 19.3 | 77.6 | 95.7 | 66.1 | normalised viability (HCC1143; 10 nM): 66%; normalised viability (HCC1143; 10000 nM): 42.9%; normalised viability (SK-BR-3; 10 nM): 52.1%; normalised viability (SK-BR-3; 10000 nM): 12.3%; normalised viability (HCC1599; 10 nM): 97.4%; normalised viability (HCC1599; 10000 nM): 79.5%; normalised viability (Hs578T; 10 nM): 98%; normalised viability (Hs578T; 10000 nM): 14.4%; normalised viability (CAL-120; 10 nM): 71.8%; normalised viability (CAL-120; 10000 nM): 13.2%
3 | CN1CC[C@H](c2c(O)cc(O)c3c(=O)cc(-c4ccccc4Cl)oc23)[C@H](O)C1 [Alvocidib] | 108 | 10.4 | 5.45 | 92 | 9 | 7.78 | 88.6 | 87.6 | 84.2 | 79.5 | 15 | 18.7 | 86 | 89.6 | 70.8 | 14.1 | 4.29 | 19.6 | 4.18 | 10.7 | normalised viability (HCC1143; 10 nM): 76.5%; normalised viability (HCC1143; 10000 nM): 15.1%; normalised viability (SK-BR-3; 10 nM): 88.5%; normalised viability (SK-BR-3; 10000 nM): 5.99%; normalised viability (HCC1599; 10 nM): 124%; normalised viability (HCC1599; 10000 nM): 21.9%; normalised viability (Hs578T; 10 nM): 90.8%; normalised viability (Hs578T; 10000 nM): 2.76%; normalised viability (CAL-120; 10 nM): 67.7%; normalised viability (CAL-120; 10000 nM): 11.1%
4 | Nc1nc(Cl)nc2c1ncn2[C@H]1C[C@H](O)[C@@H](CO)O1 [Cladribine] | – | 82.8 | – | – | 45.8 | – | 101 | – | – | – | 43.4 | – | 109 | – | – | 72.2 | 42.4 | 91.7 | 105 | 48.1 | normalised viability (MDA-MB-468; 1 nM): 99.6%; normalised viability (MDA-MB-468; 100 nM): 94.4%; normalised viability (BT-549; 1 nM): 82.5%; normalised viability (BT-549; 100 nM): 86.4%; normalised viability (HDQ-P1; 0.3 nM): 113%; normalised viability (HDQ-P1; 10 nM): 109%; normalised viability (HCC1937; 1 nM): 91.8%; normalised viability (HCC1937; 100 nM): 56.8%; normalised viability (CAL-148; 0.3 nM): 91.9%; normalised viability (CAL-148; 10 nM): 93%; normalised viability (HCC1143; 1 nM): 91.9%; normalised viability (HCC1143; 100 nM): 87.6%; normalised viability (SK-BR-3; 1 nM): 92.6%; normalised viability (SK-BR-3; 100 nM): 99.7%; normalised viability (HCC1599; 1 nM): 97.8%; normalised viability (HCC1599; 100 nM): 83%; normalised viability (Hs578T; 1 nM): 111%; normalised viability (Hs578T; 100 nM): 104%; normalised viability (CAL-120; 1 nM): 87.2%; normalised viability (CAL-120; 100 nM): 79.7%
5 | Nc1ccn([C@@H]2O[C@H](CO)[C@@H](O)[C@@H]2O)c(=O)n1 [Cytarabine] | 101 | 68.4 | 57.2 | 87.2 | 65.7 | 62.9 | 80.6 | 94.8 | 42.5 | 124 | 41.6 | 42.6 | 95.9 | 68.9 | 47.9 | 71.4 | 64.7 | 78.7 | 67.8 | 66.4 | normalised viability (HCC1143; 10 nM): 80.5%; normalised viability (HCC1143; 10000 nM): 63%; normalised viability (SK-BR-3; 10 nM): 97.3%; normalised viability (SK-BR-3; 10000 nM): 47.2%; normalised viability (HCC1599; 10 nM): 109%; normalised viability (HCC1599; 10000 nM): 77.4%; normalised viability (Hs578T; 10 nM): 90.4%; normalised viability (Hs578T; 10000 nM): 62.3%; normalised viability (CAL-120; 10 nM): 95.6%; normalised viability (CAL-120; 10000 nM): 56.9%
6 | Cc1c2oc3c(C)ccc(C(=O)N[C@@H]4C(=O)N[C@H](C(C)C)C(=O)N5CCC[C@H]5C(=O)N(C)CC(=O)N(C)[C@@H](C(C)C)C(=O)O[C@@H]4C)c3nc-2c(C(=O)N[C@@H]2C(=O)N[C@H](C(C)C)C(=O)N3CCC[C@H]3C(=O)N(C)CC(=O)N(C)[C@@H](C(C)C)C(=O)O[C@@H]2C)c(N)c1=O [Dactinomycin] | – | 4.33 | – | – | 4.47 | – | 45.2 | – | – | – | 18.4 | – | 32.4 | – | – | 16 | 4.85 | 12.8 | 1.67 | 9.97 | normalised viability (MDA-MB-468; 1 nM): 60.3%; normalised viability (MDA-MB-468; 100 nM): 3.39%; normalised viability (BT-549; 1 nM): 56.6%; normalised viability (BT-549; 100 nM): 4.94%; normalised viability (HDQ-P1; 0.3 nM): 85.1%; normalised viability (HDQ-P1; 10 nM): 35.9%; normalised viability (HCC1937; 1 nM): 65.8%; normalised viability (HCC1937; 100 nM): 21.8%; normalised viability (CAL-148; 0.3 nM): 71.8%; normalised viability (CAL-148; 10 nM): 4.61%; normalised viability (HCC1143; 1 nM): 50.3%; normalised viability (HCC1143; 100 nM): 17.6%; normalised viability (SK-BR-3; 1 nM): 76%; normalised viability (SK-BR-3; 100 nM): 3.88%; normalised viability (HCC1599; 1 nM): 87.7%; normalised viability (HCC1599; 100 nM): 18.1%; normalised viability (Hs578T; 1 nM): 53.8%; normalised viability (Hs578T; 100 nM): 3.41%; normalised viability (CAL-120; 1 nM): 51%; normalised viability (CAL-120; 100 nM): 11.9%
7 | COc1cccc2c1C(=O)c1c(O)c3c(c(O)c1C2=O)C[C@@](O)(C(=O)CO)C[C@@H]3O[C@H]1C[C@H](N)[C@H](O)[C@H](C)O1 [Doxorubicin] | – | 4.32 | – | – | 5.36 | – | 96.8 | – | – | – | 22.2 | – | 93 | – | – | 32.2 | 8.28 | 59 | 6.05 | 6.93 | normalised viability (MDA-MB-468; 1 nM): 99.7%; normalised viability (MDA-MB-468; 100 nM): 65.9%; normalised viability (BT-549; 1 nM): 114%; normalised viability (BT-549; 100 nM): 76.5%; normalised viability (HDQ-P1; 0.3 nM): 104%; normalised viability (HDQ-P1; 10 nM): 93%; normalised viability (HCC1937; 1 nM): 86.6%; normalised viability (HCC1937; 100 nM): 37%; normalised viability (CAL-148; 0.3 nM): 86.5%; normalised viability (CAL-148; 10 nM): 73.6%; normalised viability (HCC1143; 1 nM): 101%; normalised viability (HCC1143; 100 nM): 60.2%; normalised viability (SK-BR-3; 1 nM): 87.9%; normalised viability (SK-BR-3; 100 nM): 41.3%; normalised viability (HCC1599; 1 nM): 93%; normalised viability (HCC1599; 100 nM): 74.8%; normalised viability (Hs578T; 1 nM): 115%; normalised viability (Hs578T; 100 nM): 71.3%; normalised viability (CAL-120; 1 nM): 96.2%; normalised viability (CAL-120; 100 nM): 52.6%
8 | Cc1ccc(F)c(NC(=O)Nc2ccc(-c3cccc4[nH]nc(N)c34)cc2)c1 [Linifanib] | – | 104 | – | – | 97.5 | – | 111 | – | – | – | 111 | – | 96.3 | – | – | 93.9 | 123 | 109 | 91.3 | 109 | normalised viability (MDA-MB-468; 1 nM): 182%; normalised viability (MDA-MB-468; 100 nM): 111%; normalised viability (BT-549; 1 nM): 91.5%; normalised viability (BT-549; 100 nM): 96%; normalised viability (HDQ-P1; 0.3 nM): 107%; normalised viability (HDQ-P1; 10 nM): 103%; normalised viability (HCC1937; 1 nM): 147%; normalised viability (HCC1937; 100 nM): 93.6%; normalised viability (CAL-148; 0.3 nM): 93%; normalised viability (CAL-148; 10 nM): 94.4%; normalised viability (HCC1143; 1 nM): 112%; normalised viability (HCC1143; 100 nM): 89%; normalised viability (SK-BR-3; 1 nM): 117%; normalised viability (SK-BR-3; 100 nM): 112%; normalised viability (HCC1599; 1 nM): 109%; normalised viability (HCC1599; 100 nM): 108%; normalised viability (Hs578T; 1 nM): 114%; normalised viability (Hs578T; 100 nM): 101%; normalised viability (CAL-120; 1 nM): 90.8%; normalised viability (CAL-120; 100 nM): 91.2%
